≈ marks a conversion by molar mass, not a printed value. Where a name gives a salt, the structure may show the parent alone. *1 amine or outer side, *2 acyl side, *3 side chain or, on linkers, in order; H or OH if unused. Where a SMILES comes first, the peptide text is derived from it. Bridges are numbered along the chain shown (N, C = ends). Roman numbers before positions name the chains, in order. [ ]: non-standard residue; d: D form. Actinocin(9to1) = Cc1c2oc3c(C)ccc(C(=O)[*:1])c3nc-2c(C(=O)[*:2])c(N)c1=O; NMeV = CN[C@H](C(=O)O)C(C)C; Sar = CNCC(=O)O
What was measured:
[1] = system: Bacillus Calmette–Guérin (BCG) (1173P2); assay: organism not typed; format: cell-based, Mycobacterium bovis
[2] = system: Human Umbilical Vein Endothelial (HUVEC) cell line; assay: cells; details: 24 h, read-out: MTT IC 50
[3] = system: Human Umbilical Vein Endothelial (HUVEC) cell line
M. tuberculosis = details: cited from earlier work; for activity against mychobacterium tuberculosis: both active and persistent form
[4] = system: pantothenate synthetase (PanC, Rv3602c); details: HTS hits; cited from earlier work
[5] = 48 h, read-out: MIC 48 h, BCG, alamar blue, colour read after 48 h reincubation
[6] = 72 h, read-out: BCG MIC, Table 4, same values as 72 h reading
[7] = 72 h, read-out: MIC 72 h, BCG, alamar blue, colour read after 72 h reincubation
[8] = 72 h, read-out: MIC, Mycobacterium bovis BCG, corresponds to 72 h values

Structure (SMILES)	MIC [1, 5] [µg/mL]	MIC [1, 6] [µg/mL]	MIC [1, 7] [µg/mL]	IC50 [2] [µg/mL]	MIC [1, 8] [µg/mL]	further results
Nc1ccccc1 [Compound 1a]	500 (≈ 5370 µM)	250 (≈ 2680 µM)	250 (≈ 2680 µM)	1040 (≈ 11100 µM)	–	–
N#Cc1ccccc1N [Compound 1b]	500 (≈ 4230 µM)	93.8 (≈ 794 µM)	93.8 (≈ 794 µM)	908 (≈ 7680 µM)	–	–
c1ccc2[nH]ccc2c1 [Compound 1c, indole]	125 (≈ 1070 µM)	46.9 (≈ 400 µM)	46.9 (≈ 400 µM)	573 (≈ 4890 µM)	46.9 (≈ 400 µM)	selectivity indices (SI) [3]: ≥ 10; tuberculostatic effect (M. tuberculosis): comparable with Isoniazid
c1ccc2c(c1)CCN2 [Compound 1d, indoline]	31.2 (≈ 262 µM)	7.81 (≈ 65.5 µM)	7.81 (≈ 65.5 µM)	800 (≈ 6710 µM)	7.81 (≈ 65.5 µM)	–
Nc1ccc2c(c1)Cc1ccccc1-2 [Compound 1e, 2-fluorenamine]	31.2 (≈ 172 µM)	11.7 (≈ 64.7 µM)	11.7 (≈ 64.7 µM)	726 (≈ 4010 µM)	11.7 (≈ 64.7 µM)	selectivity indices (SI) [3]: ≥ 10
Nc1cccc2c1C(=O)c1ccccc1C2=O [Compound 1f, 1-aminoanthraquinone]	188 (≈ 840 µM)	7.81 (≈ 35 µM)	7.81 (≈ 35 µM)	14.2 (≈ 63.5 µM)	7.8 (≈ 34.9 µM)	MIC ([1]; Mycobacterium bovis BCG, corresponds to 72 h values): 7.81 µg/mL (≈ 35 µM); cytotoxicity in HUVEC cell line [3]: not in acceptable range
Nc1ccc(Nc2ccccc2)c2c1C(=O)c1ccccc1C2=O [Compound 1g, 1-amino-4-anilino-9,10-anthraquinone]	7.81 (≈ 24.8 µM)	< 3.9	< 3.9	344 (≈ 1100 µM)	< 3.9	selectivity indices (SI) [3]: ≥ 10
O=C1c2ccccc2C(=O)N1CCO [Compound 1h, N-(2-Hydroxyethyl)-phthalimide]	500 (≈ 2620 µM)	500 (≈ 2620 µM)	500 (≈ 2620 µM)	842 (≈ 4400 µM)	–	antimycobacterial activity ([1]; BCG): did not show good activity
NCCCn1ccnc1 [Compound 1i]	250 (≈ 2000 µM)	125 (≈ 999 µM)	125 (≈ 999 µM)	441 (≈ 3520 µM)	–	–
O=C(O)/C=C/c1cnc[nH]1 [Compound 1j]	500 (≈ 3620 µM)	500 (≈ 3620 µM)	500 (≈ 3620 µM)	1190 (≈ 8590 µM)	–	antimycobacterial activity ([1]; BCG): no activity
Cc1cc(C(=O)O)no1 [Compound 2a, 5-methylisoxazole-3-carboxylic acid]	500 (≈ 3930 µM)	125 (≈ 983 µM)	125 (≈ 983 µM)	1090 (≈ 8600 µM)	–	antimycobacterial activity ([1]; BCG): no antimycobacterial activity
O=C(O)c1cc2ccccc2oc1=O [Compound 2b, coumarin-3-carboxylic acid]	125 (≈ 657 µM)	31.2 (≈ 164 µM)	31.2 (≈ 164 µM)	924 (≈ 4860 µM)	31.2 (≈ 164 µM)	selectivity indices (SI) [3]: ≥ 10
C[C@]1(COc2ccc(N3CCC(Oc4ccc(OC(F)(F)F)cc4)CC3)cc2)Cn2cc([N+](=O)[O-])nc2O1 [OPC-676833]	–	–	–	–	–	activity against mychobacterium tuberculosis (M. tuberculosis): good in-vitro and in-vivo activity
O=[N+]([O-])c1cn2c(n1)OC[C@@H](OCc1ccc(OC(F)(F)F)cc1)C2 [PA-8242]	–	–	–	–	–	activity against mychobacterium tuberculosis (M. tuberculosis): good in-vitro and in-vivo activity
Cc1c2oc3c(C)ccc(C(=O)N[C@@H]4C(=O)N[C@H](C(C)C)C(=O)N5CCC[C@H]5C(=O)N(C)CC(=O)N(C)[C@@H](C(C)C)C(=O)O[C@@H]4C)c3nc-2c(C(=O)N[C@@H]2C(=O)N[C@H](C(C)C)C(=O)N3CCC[C@H]3C(=O)N(C)CC(=O)N(C)[C@@H](C(C)C)C(=O)O[C@@H]2C)c(N)c1=O [actinomycin D] (I: T[dV]P[Sar][NMeV] / II: T[dV]P[Sar][NMeV]; ester I:1-I:C, II:1-II:C; linker I:N-II:N via Actinocin(9to1))	–	–	–	–	–	activity against pantothenate synthetase [4]: poor activity
COc1cccc2c1C(=O)c1c(O)c3c(c(O)c1C2=O)C[C@@](O)(C(=O)CO)C[C@@H]3O[C@H]1C[C@H](N)[C@H](O)[C@H](C)O1 [doxorubicin, reference compound]	–	–	–	3.1 (≈ 5.7 µM)	–	–
CC[C@@H](CO)NCCN[C@@H](CC)CO [ethambutol, Ethambutol, reference compound]	–	–	–	–	–	MIC ([1]; Bacillus, BCG, read-out: MIC of ethambutol, positive control, table footnote, reading time not given): 3.12 µg/mL
CCN(CC)CCOC(=O)C(Cc1cccc2ccccc12)CC1CCCO1 (stereo not shown) [nafronyl oxalate]	–	–	–	–	–	activity against pantothenate synthetase [4]: poor activity

— publication PMC4277633 (Iranian Journal of Pharmaceutical Research : IJPR, 2015)
